Data as given in patent publication US9101566B2, “Fermentation product of cereal plant-derived material and immunomodulator” (KIRIN HOLDINGS KABUSHIKI KAISHA, priority 2009, dated 2015).

System: mDCs treated with 14-DHE co-cultured with naive CD4+ T cells
Test: Antigen-non-specific Treg-inducing capacity (MLR) of DCs treated with 14-DHE (Example 10)
Format: cell-based, mouse
Method: In a manner similar to that in the above Examples, DCs were induced using Flt-3L from BALB/c mouse bone marrow cells in the presence of a processed product of wheat bran fermented with koji and then treated with LPS for 24 hours. mDCs were sorted from the thus obtained cells in a manner similar to that in Example 3 and then subjected to mitomycin C treatment to stop the DC proliferation.
Next, naive CD4^+ T cells were sorted from C57BL/6, DCs and the sorted cells were mixed at DC:CD4^+T=1:10 (the number of cells), and then they were co-cultured. At this time, the medium was supplemented with 0.5 ng/mL TGF-β1 (Peprotech).
Seven days layer, cells were recovered and then the proportion of FoxP3^+CD25^+ T cells in CD^+ T cells was determined using a flow cytometer (after staining of cell surface markers using anti-CD25-FITC, anti-CD3-APC-Cy7, and anti-CD4-PerCP, cell permeabilization treatment was performed using a Foxp3 Staining Buffer Set (e Bioscience) according to the manufacturer's instructions, and then intracellular Foxp3 was stained with anti-Foxp3-PE (e Bioscience)). […]
In a manner similar to that in Example 5, the Treg-inducing activity of mDCs treated with 14-DHE was measured. […]

CC(C)[C@@H](C)/C=C/[C@@H](C)[C@H]1CC=C2C3=CC=C4C[C@@H](O)CC[C@]4(C)[C@H]3CC[C@@]21C [Sample 14-DHE, ergosta-5,7,14,22-tetraen-3β-ol]
generation of Treg compared with the control: about 2 times
